Test results: ChEMBL document CHEMBL4732046, “A red-light-activated sulfonamide porphycene for highly efficient photodynamic therapy against hypoxic tumor” (Eur J Med Chem, 2021)
Activity calls are given as the source filed them. The rule behind the calls is not given here.

Experiments:
HeLa = assay: Photocytotoxicity against human HeLa cells assessed as reduction in cell viability irradiated with 640 +/- 15 nm red LED for 4 hrs measured after 24 hrs by MTT assay; type: functional, cell-based; details: light or radiation study
KYSE-70 cell line [1] = assay: Photocytotoxicity against human KYSE-70 cells assessed as reduction in cell viability irradiated with 640 +/- 15 nm red LED for 4 hrs measured after 24 hrs by MTT assay; type: functional, cell-based; details: KYSE-70, light or radiation study
B16 [2] = assay: Photocytotoxicity against mouse B16 cells assessed as reduction in cell viability irradiated with 640 +/- 15 nm red LED for 4 hrs measured after 24 hrs by MTT assay; type: functional, cell-based; details: B16, light or radiation study
KYSE-70 cell line [3] = assay: Photocytotoxicity against human KYSE-70 cells assessed as reduction in cell viability irradiated with 640 +/- 15 nm red LED for 4 hrs measured after 24 hrs under hypoxic condition by MTT assay; type: functional, cell-based; details: KYSE-70, light or radiation study
A-375 [4] = assay: Photocytotoxicity against human A-375 cells assessed as reduction in cell viability irradiated with 640 +/- 15 nm red LED for 4 hrs measured after 24 hrs under hypoxic condition by MTT assay; type: functional, cell-based; details: A-375, light or radiation study
B16 [5] = assay: Antiproliferative activity against mouse B16 cells assessed as inhibition of cell proliferation irradiated with 640 +/- 15 nm red LED for 4 hrs in presence of 30 uM D-mannitol measured after 24 hrs by MTT assay; type: functional, cell-based
B16 [6] = assay: Antiproliferative activity against mouse B16 cells assessed as inhibition of cell proliferation irradiated with 640 +/- 15 nm red LED for 4 hrs in presence of 30 uM L-histidine measured after 24 hrs under hypoxic condition by MTT assay; type: functional, cell-based
[7] = Drug uptake in human A-375 cells upto 2 hrs by flow cytometric analysis; type: ADME, cell-based; details: a-375, 2 h
[8] = Drug uptake in mouse B16 cells upto 2 hrs by flow cytometric analysis; type: ADME, cell-based; details: b16, 2 h
[9] = Drug uptake in human A-375 cells mitochondria incubated for 24 hrs by mito-tracker green based confocal microscopic method; type: ADME; details: a-375, 24 h
[10] = Drug uptake in human A-375 cells lysosome after 24 hrs by Lyso-Tracker Red dye based confocal microscopic method; type: ADME, subcellular; details: a-375, 24 h
B16 [11] = assay: Induction of intracellular reactive oxygen species production in mouse B16 cells irradiated with 640 +/- 15 nm red LED for 1 hrs measured after 4 hrs by DCFH-DA probe based flow cytometry; type: functional, cell-based; details: dose nM <=400, time 4.0 hrs
A-375 [12] = assay: Induction of morphological changes in human A-375 cells assessed as nuclear shrinkage at 100 to 300 nM incubated for 24 hrs by Hoechst 33258 staining based assay; type: functional, cell-based; details: dose 100-300 nM
B16 [13] = assay: Induction of morphological changes in mouse B16 cells assessed as chromatin condensation at 200 to 400 nM incubated for 24 hrs by Hoechst 33258 staining based assay; type: functional, cell-based; details: dose 200-400 nM
B16 [14] = assay: Induction of apoptosis in mouse B16 cells assessed as apoptotic cells at 200 nM irradiated with 640 +/- 15 nm red LED for 1 hrs after 24 hrs by Annexin V-FITC/propidium iodide staining based flow cytometric analysis relative to control; type: functional, cell-based
B16 [15] = assay: Induction of apoptosis in mouse B16 cells assessed as increase in Bax level at 200 to 400 nM irradiated with 640 +/- 15 nm red LED for 1 hrs measured after 24 hrs by Western blot analysis; type: functional, cell-based; details: dose 200-400 nM
A-375 [16] = assay: Induction of apoptosis in human A-375 cells assessed as decrease in Bid level at 100 to 300 nM irradiated with 640 +/- 15 nm red LED for 1 hrs measured after 24 hrs by Western blot analysis; type: functional, cell-based; details: dose 100-300 nM
A-375 [17] = assay: Induction of apoptosis in human A-375 cells assessed as decrease in Bcl2 level at 100 to 300 nM irradiated with 640 +/- 15 nm red LED for 1 hrs measured after 24 hrs by Western blot analysis; type: functional, cell-based; details: dose 100-300 nM
A-375 [18] = assay: Induction of apoptosis in human A-375 cells assessed as increase in cleaved caspase 3 level at 100 to 300 nM irradiated with 640 +/- 15 nm red LED for 1 hrs measured after 24 hrs by Western blot analysis; type: functional, cell-based; details: dose 100-300 nM
B16 [19] = assay: Induction of apoptosis in mouse B16 cells assessed as increase in cleaved caspase 3 level at 200 to 400 nM irradiated with 640 +/- 15 nm red LED for 1 hrs measured after 24 hrs by Western blot analysis; type: functional, cell-based; details: dose 200-400 nM
A-375 [20] = assay: Induction of apoptosis in human A-375 cells assessed as increase in cytochrome c level at 100 to 300 nM irradiated with 640 +/- 15 nm red LED for 1 hrs measured after 24 hrs by Western blot analysis; type: functional, cell-based; details: dose 100-300 nM
A-375 [21] = assay: Antitumor activity against human A-375 cells xenografted in BALB/c mouse assessed as reduction in tumor volume at 50 uM, IT once every 2 days for 2 weeks followed every dosing irradiated with 640 +/- 15 nm red LED for 4 hrs; type: functional, cell-based
B16 [22] = assay: Antitumor activity against mouse B16 cells xenografted in C57BL/6J mouse assessed as tumor growth inhibition at high dose intratumorally once every 2 days for 2 weeks followed every dosing irradiated with 640 +/- 15 nm red LED for 4 hrs measured after 14 days treatment; type: functional, cell-based; details: time 14.0 day
B16 [23] = assay: Antitumor activity against mouse B16 cells xenografted in C57BL/6J mouse assessed as reduction in tumor volume at high dose intratumorally once every 2 days for 2 weeks followed every dosing irradiated with 640 +/- 15 nm red LED for 4 hrs measured after 14 days treatment; type: functional, cell-based; details: time 14.0 day
[24] = Toxicity in C57BL/6 mouse xenografted with mouse B16 cells assessed as body weight at high dose intratumorally once every 2 days for 2 weeks followed every dosing irradiated with 640 +/- 15 nm red LED for 4 hrs measured after 14 days treatment; details: in vivo, other, 336 h, time 14 day
[25] = Toxicity in C57BL/6 mouse model assessed as effect on lungs treated intratumorally once every 2 days for 2 weeks followed every dosing irradiated with 640 +/- 15 nm red LED for 4 hrs measured upto 28 days by H and E staining dependent light microscopy based histopathological analysis; details: in vivo, other, time <=28 day
[26] = Toxicity in C57BL/6 mouse assessed as effect on aspartate aminotransferase level measured after 7 days; details: in vivo, 168 h, time 7 day
[27] = Toxicity in C57BL/6 mouse assessed as effect on alanine aminotransferase level measured after 2 days; details: in vivo, 48 h, time 2 day
[28] = Toxicity in C57BL/6 mouse assessed as effect on alanine aminotransferase level measured after 7 days; details: in vivo, 168 h, time 7 day
[29] = Toxicity in C57BL/6 mouse assessed as effect on blood urea nitrogen level measured upto 14 days; details: in vivo, 336 h, time <=14 day
[30] = Toxicity in C57BL/6 mouse assessed as effect on serum creatinine level measured upto 14 days; details: in vivo, 336 h, time <=14 day
A-375 [31] = assay: Induction of intracellular reactive oxygen species production in human A-375 cells assessed as […] membrane damage at 200 nM irradiated with 640 +/- 15 nm red LED for 1 hr measured after 4 hrs by mito-tracker green based confocal microscopic method; type: functional, cell-based
A-375 [32] = assay: Antitumor activity against human A-375 cells xenografted in BALB/c mouse assessed as tumor growth inhibition by measuring nuclear TUNEL-positive treated at high dose intratumorally once every 2 days for 2 weeks followed every dosing irradiated with 640 +/- 15 nm red LED for 4 hrs measured after 14 days treatment; type: functional, cell-based; details: time 14.0 day

Q: For `CC(C)(C)C1=Cc2nc1ccc1[nH]c(cc1S(=O)(=O)NCCOCCO)c1nc(ccc3[nH]c2cc3C(C)(C)C)C(C(C)(C)C)=C1`, which DC50 (HeLa) is on record?
A: 15 nM

Q: And the DC50 (KYSE-70 cell line [1])?
A: 31 nM

Q: And the DC50 (B16 [2])?
A: 323 nM

Q: What about the DC50 (KYSE-70 cell line [3]) of the same compound?
A: 51 nM

Q: And the DC50 (A-375 [4])?
A: 324 nM

Q: And the Activity (B16 [5])?
A: inactive

Q: What about the Activity (B16 [6]) of the same compound?
A: Active

Q: And the Drug uptake [7]?
A: Active

Q: What about the Drug uptake [8] of the same compound?
A: Active

Q: And the Drug uptake [9]?
A: Active

Q: What about the Drug uptake [10] of the same compound?
A: Active

Q: And the Activity (B16 [11])?
A: Dose-dependent effect

Q: And the Activity (A-375 [12])?
A: Active

Q: What about the Activity (B16 [13]) of the same compound?
A: Active

Q: What about the Activity (B16 [14]) of the same compound?
A: Active

Q: What about the Activity (B16 [15]) of the same compound?
A: Active

Q: And the Activity (A-375 [16])?
A: Active

Q: And the Activity (A-375 [17])?
A: Active

Q: And the Activity (A-375 [18])?
A: Active

Q: What about the Activity (B16 [19]) of the same compound?
A: Active

Q: And the Activity (A-375 [20])?
A: Active

Q: What about the Activity (A-375 [21]) of the same compound?
A: Active

Q: What about the Activity (B16 [22]) of the same compound?
A: Active

Q: What about the Activity (B16 [23]) of the same compound?
A: Active

Q: And the Activity [24]?
A: Non-Toxic

Q: What about the Activity [25] of the same compound?
A: Non-Toxic

Q: What about the Activity [26] of the same compound?
A: Toxic

Q: And the Activity [27]?
A: Toxic

Q: And the Activity [28]?
A: Toxic

Q: And the Activity [29]?
A: Non-Toxic

Q: What about the Activity [30] of the same compound?
A: Non-Toxic

Q: And the Activity (A-375 [31])?
A: Active

Q: What about the Activity (A-375 [32]) of the same compound?
A: Active
